Measurements reported in publication PMC9250534, “Synthesis and direct assay of large macrocycle diversities by combinatorial late-stage modification at picomole scale” (Nature Communications, 2022).

What follows are compounds tested against MDM2 (Homo sapiens, UniProt Q00987) (assay: MDM2 binding screen of Libraries 3 and 4: displacement of fluorescent probe F-M8 at 750 nM macrocycle). Conditions: 750 nM macrocycle; crude reaction; probe F-M8.
Description: The cyclic peptide scaffolds required for Libraries 3 and 4 were synthesized as described for those used in Library 2. Due to the presence of many N-methylated amino acids which are more difficult to couple, 200 mM HOAt was applied together with HATU. The scaffolds were diluted to 2 mM in DMSO, and 15 nL were transferred using acoustic dispensing, followed by 15 nL DMSO containing carboxylic acids (40 mM, 20 equiv.), HBTU (40 mM) and DABCO (40 mM). After 6 h reaction at room temperature, 370 nL of DMSO was added to each well, followed by 5 μL of 100 mM Tris-Cl pH 7.4 containing 0.01% v/v Tween20, for quenching overnight.

MDM2, sequence (Q00987 whole entry): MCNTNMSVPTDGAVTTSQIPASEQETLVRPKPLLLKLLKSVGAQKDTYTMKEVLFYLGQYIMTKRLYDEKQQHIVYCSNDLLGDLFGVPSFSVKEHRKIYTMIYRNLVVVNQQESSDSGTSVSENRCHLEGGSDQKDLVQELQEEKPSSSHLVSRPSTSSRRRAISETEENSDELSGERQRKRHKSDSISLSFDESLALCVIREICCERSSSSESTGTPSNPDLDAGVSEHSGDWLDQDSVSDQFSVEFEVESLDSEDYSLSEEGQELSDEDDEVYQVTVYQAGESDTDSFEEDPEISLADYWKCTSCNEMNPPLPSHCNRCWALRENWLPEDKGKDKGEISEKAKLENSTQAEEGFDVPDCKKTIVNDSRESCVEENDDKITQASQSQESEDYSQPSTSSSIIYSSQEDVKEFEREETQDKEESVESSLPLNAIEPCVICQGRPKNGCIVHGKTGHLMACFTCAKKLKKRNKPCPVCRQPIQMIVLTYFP

displacement of fluorescent probe from MDM2	Compound
68%	COc1ccc(/C=C/C(=O)NC[C@@H]2NC(=O)[C@H]3CCCN(C3)C(=O)CCSSCCNC(=O)[C@H](Cc3c[nH]c4ccccc34)NC2=O)cc1 [M9]

Same assay, conditions: Panel b, Library 3: 63 scaffolds combinatorially acylated with 15 carboxylic acids at 30 picomole scale; displacement of fluorescent peptide probe; macrocycle 750 nM

fraction of fluorescent probe displaced	Compound
-0.034	O=C1CCSSCCNC(=O)C(Cc2cccc3ccccc23)NC(=O)C(CNC(=O)C2CC2c2ccccc2)NC(=O)C2(CC2)CN1 (mixture of isomers) [X-Amcp-D-Dap-1-NaI + Acid 105]
-0.00533	CC(Oc1cccc(Cl)c1)C(=O)NCC1NC(=O)C2(CC2)CNC(=O)CCSSCCNC(=O)C(Cc2ccc3ccccc3c2)NC1=O (mixture of isomers) [X-Amcp-D-Dap-2-Nal + Acid 113]
-0.041	O=C1CCSSCCNC(=O)C(Cc2c[nH]c3ccccc23)NC(=O)C(CNC(=O)C2CC2c2ccccc2)NC(=O)C2(CC2)CN1 (mixture of isomers) [X-Amcp-D-Dap-D-Trp + Acid 105]
0.015	CN1C(=O)C(CNC(=O)C2COc3ccccc3O2)NC(=O)C2(CC2)CNC(=O)CCSSCCNC(=O)C1Cc1c[nH]c2ccccc12 (mixture of isomers) [X-Amcp-D-Dap-NMe-Trp + Acid 115]
-0.019	CC(Oc1cccc(Cl)c1)C(=O)NCC1NC(=O)C2(CC2)CNC(=O)CCSSCCNC(=O)C(Cc2c[nH]c3cc(Cl)ccc23)NC1=O (mixture of isomers) [X-Amcp-Dap-Cl-Trp + Acid 113]
-0.012	CC(Oc1cccc(Cl)c1)C(=O)NCC1NC(=O)C2(CC2)CNC(=O)CCSSCCNC(=O)C(Cc2c[nH]c3ccccc23)NC1=O (mixture of isomers) [X-Amcp-Dap-D-Trp + Acid 113]
0.008	CC(Oc1cccc(Cl)c1)C(=O)NCC1NC(=O)C2(CC2)CNC(=O)CCSSCCNC(=O)C(Cc2cn(C)c3ccccc23)NC1=O (mixture of isomers) [X-Amcp-Dap-Me-Trp + Acid 113]
0.00133	CC(Oc1cccc(Cl)c1)C(=O)NCC1NC(=O)C2(CC2)CNC(=O)CCSSCCNC(=O)C(Cc2c[nH]c3ccccc23)NC1=O (mixture of isomers) [X-Amcp-Dap-Trp + Acid 113]
0.00133	O=C1CCSSCCNC(=O)C(Cc2c[nH]c3ccccc23)NC(=O)C(CNC(=O)C2COc3ccccc3O2)NC(=O)C2(CC2)CN1 (mixture of isomers) [X-Amcp-Dap-Trp + Acid 115]
-0.00533	O=C1CCSSCCNC(=O)C(Cc2cccc3ccccc23)NC(=O)CN(CCNC(=O)C2COc3ccccc3O2)C(=O)C2(CC2)CN1 (mixture of isomers) [X-Amcp-N-Aeg-1-NaI + Acid 115]
0.015	O=C1CCSSCCNC(=O)C(Cc2ccc3ccccc3c2)NC(=O)CN(CCNC(=O)C2COc3ccccc3O2)C(=O)C2(CC2)CN1 (mixture of isomers) [X-Amcp-N-Aeg-2-Nal + Acid 115]
-0.019	CC(Oc1cccc(Cl)c1)C(=O)NCCN1CC(=O)NC(Cc2c[nH]c3cc(Cl)ccc23)C(=O)NCCSSCCC(=O)NCC2(CC2)C1=O (mixture of isomers) [X-Amcp-N-Aeg-Cl-Trp + Acid 113]
0.015	CC(Oc1cccc(Cl)c1)C(=O)NCCN1CC(=O)NC(Cc2cn(C)c3ccccc23)C(=O)NCCSSCCC(=O)NCC2(CC2)C1=O (mixture of isomers) [X-Amcp-N-Aeg-Me-Trp + Acid 113]
-0.012	CC(Oc1cccc(Cl)c1)C(=O)NCC1NC(=O)C2CCCN(C2)C(=O)CCSSCCNC(=O)C(Cc2ccc3ccccc3c2)NC1=O (mixture of isomers) [X-Nip-D-Dap-2-Nal + Acid 113]
0.00133	CC(Oc1cccc(Cl)c1)C(=O)NCC1NC(=O)C2CCCN(C2)C(=O)CCSSCCNC(=O)C(Cc2c[nH]c3ccccc23)N(C)C1=O (mixture of isomers) [X-Nip-D-Dap-NMe-Trp + Acid 113]
0.00133	O=C1NC(CNC(=O)C2COc3ccccc3O2)C(=O)NC(Cc2c[nH]c3ccccc23)C(=O)NCCSSCCC(=O)N2CCCC1C2 (mixture of isomers) [X-Nip-D-Dap-Trp + Acid 115]
-0.00533	CC(Oc1cccc(Cl)c1)C(=O)NCC1NC(=O)C2CCCN(C2)C(=O)CCSSCCNC(=O)C(Cc2c[nH]c3ccccc23)NC1=O (mixture of isomers) [X-Nip-Dap-Trp + Acid 113]
-0.00533	CC(Oc1cccc(Cl)c1)C(=O)NCCN1CC(=O)NC(Cc2cccc3ccccc23)C(=O)NCCSSCCC(=O)N2CCCC(C2)C1=O (mixture of isomers) [X-Nip-N-Aeg-1-NaI + Acid 113]
-0.00844	O=C(O)C1CC1c1ccccc1 (stereo not shown) [Acid 105]
0.00455	O=C(O)/C=C/c1ccncc1 [Acid 106]
-0.002	O=C(O)c1ccc2ccccc2c1 [Acid 107]
0.015	O=C(O)/C=C/c1ccc(Cl)cc1 [Acid 108]
0.035	O=C(O)/C=C/c1ccc(OCc2ccccc2)cc1 [Acid 110]
0.015	O=C(O)c1cccc(Oc2ccccc2)c1 [Acid 111]
0.035	O=C(O)CCS(=O)(=O)c1ccccc1 [Acid 114]
0.008	O=C1CCSSCCNC(=O)[C@H](Cc2cccc3ccccc23)NC(=O)[C@@H](CNC(=O)c2ccc(Cl)s2)NC(=O)C2(CC2)CN1 [X-Amcp-D-Dap-1-NaI + Acid 14]
-0.00844	O=C1CCSSCCNC(=O)[C@H](Cc2cccc3ccccc23)NC(=O)[C@@H](CNC(=O)c2ccc3ccccc3c2)NC(=O)C2(CC2)CN1 [X-Amcp-D-Dap-1-NaI + Acid 107]
0.021	O=C(/C=C/c1ccc(Cl)cc1)NC[C@H]1NC(=O)C2(CC2)CNC(=O)CCSSCCNC(=O)[C@H](Cc2cccc3ccccc23)NC1=O [X-Amcp-D-Dap-1-NaI + Acid 108]
0.028	O=C(/C=C/c1ccc(OCc2ccccc2)cc1)NC[C@H]1NC(=O)C2(CC2)CNC(=O)CCSSCCNC(=O)[C@H](Cc2cccc3ccccc23)NC1=O [X-Amcp-D-Dap-1-NaI + Acid 110]
0.008	O=C1CCSSCCNC(=O)[C@H](Cc2cccc3ccccc23)NC(=O)[C@@H](CNC(=O)c2cccc(Oc3ccccc3)c2)NC(=O)C2(CC2)CN1 [X-Amcp-D-Dap-1-NaI + Acid 111]

Compound	fraction of fluorescent probe displaced
CC(Oc1cccc(Cl)c1)C(=O)O (stereo not shown) [Acid 113]	-0.00533

Same assay, conditions: Panel c, Library 4: best nine scaffolds and 15 additional carboxylic acids; displacement of fluorescent probe

fraction of fluorescent probe displaced	Compound
0.036	O=C(O)/C=C/c1ccc(F)cc1 [Acid 116]
0.028	CCOc1ccc(/C=C/C(=O)O)cc1 [Acid 117]
0.028	CCCOc1ccc(/C=C/C(=O)O)cc1 [Acid 118]
0.012	O=C(O)/C=C/c1ccc(Cl)c(Cl)c1 [Acid 119]
-0.00464	O=C(O)/C=C/c1cccc(Cl)c1 [Acid 121]
-0.00464	CC(=Cc1ccccc1)C(=O)O [Acid 123]
-0.021	CC(C)c1ccc(/C=C/C(=O)O)cc1 [Acid 127]
0.0035	O=C(O)c1cnc2ccccc2n1 [Acid 130]
